# Results published in ChEMBL document CHEMBL5352432, “Ad-hoc modifications of cyclic mimetics of SOCS1 protein: Structural and functional insights” (Eur J Med Chem, 2022).
# The source made the active and inactive calls. The calls are words filed in the database; no cut-off is given here. Positions of bridges follow the written chain, without caps; N, C: chain ends. Non-standard residues stand in square brackets, D forms with d. Residues, ends and D or L forms follow the SMILES beside them. *: point of attachment. 1Nal = N[C@@H](Cc1cccc2ccccc12)C(=O)O; hArg = N=C(N)NCCCC[C@H](N)C(=O)O; Cit = NC(=O)NCCC[C@H](N)C(=O)O; Orn = NCCC[C@H](N)C(=O)O; Ac5c = NC1(C(=O)O)CCCC1; Dap = NC[C@H](N)C(=O)O; Acm = CC(=O)NC*
# Legend:
# [1] = Stability of the compound in fetal bovine serum assessed as drug degradation incubated for 17 hrs by RP-HPLC analysis; format: ADME, cell-free, Bos taurus; conditions: cattle, read-out: Drug degradation
# [2] = biological target: Tyrosine-protein kinase JAK2 (Homo sapiens, UniProt O60674); experiment: Binding affinity to His-tagged JAK2 catalytic domain (826 to 1132 residues) (unknown origin) assessed as dissociation constant incubated for 30 mins by MST analysis
# [3] = Stability of the compound in fetal bovine serum incubated for 42 hrs by RP-HPLC analysis; format: ADME, cell-free, Bos taurus; conditions: cattle
# [4] = Proteolytic stability of the compound in fetal bovine serum assessed as drug degradation incubated for 42 hrs by RP-HPLC analysis; format: ADME, cell-free, Bos taurus; conditions: cattle
# [5] = Stability of the compound in fetal bovine serum assessed as drug degradation incubated for 42 hrs by RP-HPLC analysis; format: ADME, cell-free, Bos taurus; conditions: cattle, read-out: Drug degradation
# [6] = Proteolytic stability of the compound in fetal bovine serum assessed as drug degradation incubated for 17 hrs by RP-HPLC analysis; format: ADME, cell-free, Bos taurus; conditions: cattle, read-out: Drug degradation
# Tyrosine-protein kinase JAK2, sequence (O60674 whole entry, the tested form may be a part): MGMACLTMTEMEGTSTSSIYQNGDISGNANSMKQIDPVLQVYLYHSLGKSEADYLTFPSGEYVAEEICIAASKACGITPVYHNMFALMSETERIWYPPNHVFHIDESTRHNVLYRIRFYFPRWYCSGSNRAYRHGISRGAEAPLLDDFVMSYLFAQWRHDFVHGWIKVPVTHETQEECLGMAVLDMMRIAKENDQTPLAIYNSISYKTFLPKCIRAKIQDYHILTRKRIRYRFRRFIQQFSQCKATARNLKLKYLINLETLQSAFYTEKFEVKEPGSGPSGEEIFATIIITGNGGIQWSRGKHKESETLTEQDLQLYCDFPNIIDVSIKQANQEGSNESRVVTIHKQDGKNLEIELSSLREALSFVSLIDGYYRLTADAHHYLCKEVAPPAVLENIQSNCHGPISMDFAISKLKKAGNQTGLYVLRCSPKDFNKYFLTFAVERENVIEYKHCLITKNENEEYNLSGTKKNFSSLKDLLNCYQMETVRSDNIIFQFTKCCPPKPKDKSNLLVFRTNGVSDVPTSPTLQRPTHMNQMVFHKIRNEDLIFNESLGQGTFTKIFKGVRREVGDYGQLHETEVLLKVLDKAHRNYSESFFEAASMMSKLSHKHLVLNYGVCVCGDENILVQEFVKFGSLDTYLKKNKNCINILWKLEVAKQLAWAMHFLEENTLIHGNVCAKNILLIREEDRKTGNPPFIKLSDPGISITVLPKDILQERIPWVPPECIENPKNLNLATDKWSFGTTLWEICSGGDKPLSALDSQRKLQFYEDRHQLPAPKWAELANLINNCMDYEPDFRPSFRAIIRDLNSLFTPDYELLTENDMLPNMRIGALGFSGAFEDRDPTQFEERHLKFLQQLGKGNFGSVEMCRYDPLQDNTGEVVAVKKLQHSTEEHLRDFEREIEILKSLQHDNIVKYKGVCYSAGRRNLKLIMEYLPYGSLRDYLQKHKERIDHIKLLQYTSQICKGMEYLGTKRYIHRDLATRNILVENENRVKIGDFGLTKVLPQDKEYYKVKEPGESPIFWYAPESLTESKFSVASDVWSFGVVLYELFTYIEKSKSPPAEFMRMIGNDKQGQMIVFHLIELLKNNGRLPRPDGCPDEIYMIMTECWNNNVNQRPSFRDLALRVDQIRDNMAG
Kd [2] [µM],Stability [3],SMILES,further results
36,–,CC(=O)NCSC[C@@H]1NC(=O)[C@H]([C@@H](C)O)NC(=O)[C@@H](NC(C)=O)CC(=O)NCCCC[C@@H](C(=O)N[C@@H](Cc2c[nH]cn2)C(=O)O)NC(=O)[C@H](CCCNC(=N)N)NC(=O)[C@H](Cc2cccc3ccccc23)NC(=O)[C@H]([C@@H](C)O)NC(=O)[C@H](CCC(N)=O)NC(=O)[C@H](CCCNC(=N)N)NC1=O (Ac-DTC(Acm)RQT[1Nal]RKH-OH; lactam 1-9),metabolised at 17 h [1]: 30%
–,Unstable,CC(=O)NCSC[C@@H]1NC(=O)[C@H]([C@@H](C)O)NC(=O)[C@@H](NC(C)=O)CC(=O)NC[C@@H](C(=O)N[C@@H](Cc2c[nH]cn2)C(=O)O)NC(=O)[C@H](CCCNC(=N)N)NC(=O)[C@H](Cc2cccc3ccccc23)NC(=O)[C@H]([C@@H](C)O)NC(=O)[C@H](CCC(N)=O)NC(=O)[C@H](CCCNC(=N)N)NC1=O (Ac-DTC(Acm)RQT[1Nal]R[Dap]H-OH; lactam 1-9),Activity [2]: inactive
120,–,CC(=O)NCSC[C@@H]1NC(=O)[C@H]([C@@H](C)O)NC(=O)[C@@H](NC(C)=O)CC(=O)NCCCC[C@@H](C(=O)N[C@@H](Cc2c[nH]cn2)C(=O)O)NC(=O)[C@H](CCCNC(=N)N)NC(=O)[C@H](Cc2cccc3ccccc23)NC(=O)C2(CCCC2)NC(=O)[C@H](CCC(N)=O)NC(=O)[C@H](CCCNC(=N)N)NC1=O (Ac-DTC(Acm)RQ[Ac5c][1Nal]RKH-OH; lactam 1-9),Stability [4]: Stable
36,–,CC(=O)NCSC[C@@H]1NC(=O)[C@H]([C@@H](C)O)NC(=O)[C@@H](NC(C)=O)CC(=O)NCCCC[C@@H](C(=O)N[C@@H](Cc2c[nH]cn2)C(=O)O)NC(=O)[C@H](CCCNC(=N)N)NC(=O)[C@H](Cc2cccc3ccccc23)NC(=O)[C@H]([C@@H](C)O)NC(=O)[C@H](CCCNC(N)=O)NC(=O)[C@H](CCCNC(=N)N)NC1=O (Ac-DTC(Acm)R[Cit]T[1Nal]RKH-OH; lactam 1-9),metabolised at 17 h [1]: 50%
31,Stable,CC(=O)NCSC[C@@H]1NC(=O)[C@H]([C@@H](C)O)NC(=O)[C@@H](NC(C)=O)CC(=O)NCCCC[C@@H](C(=O)N[C@@H](Cc2c[nH]cn2)C(=O)O)NC(=O)[C@H](CCCCNC(=N)N)NC(=O)[C@H](Cc2cccc3ccccc23)NC(=O)[C@H]([C@@H](C)O)NC(=O)[C@H](CCCNC(N)=O)NC(=O)[C@H](CCCNC(=N)N)NC1=O (Ac-DTC(Acm)R[Cit]T[1Nal][hArg]KH-OH; lactam 1-9),–
32,–,CC(=O)NCSC[C@@H]1NC(=O)[C@H]([C@@H](C)O)NC(=O)[C@@H](NC(C)=O)CC(=O)NCCCC[C@@H](C(=O)N[C@@H](Cc2c[nH]cn2)C(=O)O)NC(=O)[C@H](CCCNC(=N)N)NC(=O)[C@H](Cc2cccc3ccccc23)NC(=O)[C@H]([C@@H](C)O)NC(=O)[C@H](CCCN)NC(=O)[C@H](CCCNC(=N)N)NC1=O (Ac-DTC(Acm)R[Orn]T[1Nal]RKH-OH; lactam 1-9),metabolised at 17 h [1]: 30%; metabolised at 42 h [5]: 100%
39,Stable,CC(=O)NCSC[C@@H]1NC(=O)[C@H]([C@@H](C)O)NC(=O)[C@@H](NC(C)=O)CC(=O)NCCCC[C@@H](C(=O)N[C@@H](Cc2c[nH]cn2)C(=O)O)NC(=O)[C@H](CCCCNC(=N)N)NC(=O)[C@H](Cc2cccc3ccccc23)NC(=O)[C@H]([C@@H](C)O)NC(=O)[C@H](CCCN)NC(=O)[C@H](CCCNC(=N)N)NC1=O (Ac-DTC(Acm)R[Orn]T[1Nal][hArg]KH-OH; lactam 1-9),–
260,–,CC(=O)NCSC[C@@H]1NC(=O)C2(CCCC2)NC(=O)[C@@H](NC(C)=O)CC(=O)NCCCC[C@@H](C(=O)N[C@@H](Cc2c[nH]cn2)C(=O)O)NC(=O)[C@H](CCCNC(=N)N)NC(=O)[C@H](Cc2cccc3ccccc23)NC(=O)[C@H]([C@@H](C)O)NC(=O)[C@H](CCC(N)=O)NC(=O)[C@H](CCCNC(=N)N)NC1=O (Ac-D[Ac5c]C(Acm)RQT[1Nal]RKH-OH; lactam 1-9),Stability [4]: Stable
52,Stable,CC(=O)NCSC[C@@H]1NC(=O)[C@H]([C@@H](C)O)NC(=O)[C@@H](NC(C)=O)CCC(=O)NCCCC[C@@H](C(=O)N[C@@H](Cc2c[nH]cn2)C(=O)O)NC(=O)[C@H](CCCNC(=N)N)NC(=O)[C@H](Cc2cccc3ccccc23)NC(=O)[C@H]([C@@H](C)O)NC(=O)[C@H](CCC(N)=O)NC(=O)[C@H](CCCNC(=N)N)NC1=O (Ac-ETC(Acm)RQT[1Nal]RKH-OH; lactam 1-9),–
71,Stable,CC(=O)NCSC[C@@H]1NC(=O)[C@H]([C@@H](C)O)NC(=O)[C@@H](NC(C)=O)CCC(=O)NC[C@@H](C(=O)N[C@@H](Cc2c[nH]cn2)C(=O)O)NC(=O)[C@H](CCCNC(=N)N)NC(=O)[C@H](Cc2cccc3ccccc23)NC(=O)[C@H]([C@@H](C)O)NC(=O)[C@H](CCC(N)=O)NC(=O)[C@H](CCCNC(=N)N)NC1=O (Ac-ETC(Acm)RQT[1Nal]R[Dap]H-OH; lactam 1-9),–
–,Unstable,CC(=O)NCSC[C@@H]1NC(=O)[C@H]([C@@H](C)O)NC(=O)[C@@H](NC(C)=O)CCC(=O)NCCC[C@@H](C(=O)N[C@@H](Cc2c[nH]cn2)C(=O)O)NC(=O)[C@H](CCCNC(=N)N)NC(=O)[C@H](Cc2cccc3ccccc23)NC(=O)[C@H]([C@@H](C)O)NC(=O)[C@H](CCC(N)=O)NC(=O)[C@H](CCCNC(=N)N)NC1=O (Ac-ETC(Acm)RQT[1Nal]R[Orn]H-OH; lactam 1-9),Activity [2]: inactive
160,–,CC(=O)NCSC[C@@H]1NC(=O)[C@H]([C@@H](C)O)NC(=O)[C@@H](NC(C)=O)CCCCNC(=O)C[C@@H](C(=O)N[C@@H](Cc2c[nH]cn2)C(=O)O)NC(=O)[C@H](CCCNC(=N)N)NC(=O)[C@H](Cc2cccc3ccccc23)NC(=O)[C@H]([C@@H](C)O)NC(=O)[C@H](CCC(N)=O)NC(=O)[C@H](CCCNC(=N)N)NC1=O (Ac-KTC(Acm)RQT[1Nal]RDH-OH; lactam 1-9),metabolised at 17 h [6]: 100%
